{"source": "patent EP2815749A1", "about": "“Solid form of 4-amino-2-(2,6-dioxopiperidine-3-yl)isoindoline-1,3-dione having specified X-ray diffraction pattern” (IP Gesellschaft für Management mbH, priority 2013, dated 2014)", "key": {"[1]": {"test": "In vivo pharmacokinetics of Compound (VI) free base and hemisulfate salt capsules", "conditions": "dogs; 150 mg capsule oral; famotidine pretreatment", "procedure": "An aliquot of 0.050 mL of dog EDTA plasma was used for the assay. […] A 450 µï^ portion of the organic layer was removed and evaporated to dryness. The residue was reconstituted in 300 µl, of the reconstitution solution (30% acetonitrile in 10 mM NH40Ac with 0.01% acetic acid). All liquid transfer steps were performed using a Perkin Elmer JANUS Mini® liquid handler except for the addition of the internal standard solution. A 5 µï^ aliquot of the extracted sample was injected to uHPLC-MS/MS system. The uHPLC was performed on a LEAP 4X Ultra uHPLC system with LEAP HTC PAL autosampler. Mobile phase A contained 10 mM NH4OAc and 0.01% acetic acid in ACN/water (10:90), and mobile phase B contained 10 mM NH4OAc and 0.01% acetic acid in ACN/water (90: 10). […] The flow rate was 0.6 mL/min and column temperature was maintained at 60°C condition. Detection was accomplished using an AB Sciex Triple Quad 5500 mass spectrometer in positive ESI with turbo ion spray ionization and using multiple reaction monitoring (MRM) mode. […] Data acquisition and quantification were performed using AB Sciex Analyst® 1.5.1 software."}, "[2]": {"test": "Moisture sorption isotherm of Example 1", "type": "physicochemical", "conditions": "25°C", "text": "Example 1 has moisture sorption weight gains of 0.8 weight % and 2.8 weight % between 25% and 75% relative humidity and 5% and 95% relative humidity, respectively. […] PXRD Peak Positions (degrees 2Θ±0.1):\nThe hemisulfate salt of Compound (VI) has the surprising advantage of reducing the variability in the bioavailability of Compound (VI) and/or increasing the bioavailability of Compound (VI) to the patient. Based on these in vitro and in vivo data, it is expected that the hemisulfate will provide a significant advantage of consistency in bioavailability among patients over the free form. […] Single Crystal Data (LVL): Data were collected on a Bruker-Nonius CAD4 serial diffractometer. […] Intensities were measured using Cu Ka radiation (λ = 1.5418 A) at a constant temperature with the Θ-2Θ variable scan technique and were corrected only for Lorentz-polarization factors. […] Indexing and processing of the measured intensity data were carried out with the HKL2000 software package (Otwinowski, Z & Minor, W. (1997) in Macromolecular Crystallography, eds. Carter, W.C. Jr. & Sweet, R.M. (Academic, NY), Vol. 276, pp307-326) in the Collect program suite. […] Indexing and processing of the measured intensity data were carried out with the APEX2 software package/program suite (APEX2 Data collection and processing user interface: APEX2 User Manual, v1.27; BRUKER AXS, inc., Madison, WI). […]"}, "[3]": {"test": "Stability in water slurry", "type": "physicochemical", "conditions": "room temperature, after two days", "protocol": "(§1) Other Crystalline Forms of Example 1: Form P22C: prepared by heating Form HI.5-1 ({drug6b}) at 60°C for 2 hours or at 75°C for 5 minutes. […] Form P33 ({drug6c}): Form HI.5-1 ({drug6b}) converted to Form P33 ({drug6c}) between 50°C and 75°C in variable temperature PXRD experiment. […] Form P35: Prepared from slurry of Form HI.5-1 ({drug6b}) in dry MeOH under molecular sieves (7% RH). Converted to Form P33 ({drug6c}) when dried at 60°C. Stability in Water Slurry: An aqueous slurry of Example 1 was prepared and stored at room temperature. […] The hemisulfate salt of Compound (VI) has the surprising advantage of providing a salt that is physically stable and chemically stable compared to other salts of Compound (VI). Further, the hemisulfate salt had the surprising advantage of being provided in a stable crystalline form, Form HI.5-1 ({drug6b})."}, "[4]": {"test": "Solid state stability study of Example 1 (hemisulfate salt, Form HI.5-1)", "type": "physicochemical", "protocol": "Stability Study: The solid state stability of Example lwas tested by exposing samples to various temperature and relative humidity conditions for periods of 1, 2, and 4 weeks. […] Table 4: Solid State Stability of Hemisulfate Salt, Form HI.5-1 ({drug6b}): […]"}, "[5]": {"test": "Water activity studies between crystalline forms", "type": "physicochemical", "protocol": "as §1"}, "[6]": {"conditions": "for water uptake at 5 % RH: 25°C", "procedure": "(§2) Hygroscopicity: Sorption/desorption isotherms were measured using the VT1100 humidity microbalance (VTI Corporation, Hialeah, FL, USA). Measurements were carried out at 25°C. Samples were dried under N2 flow at 25°C. […] Concentration in supernatant was measured by gravimetry for organic solvents and by HPLC from aqueous solvents and propylene glycol."}, "[7]": {"conditions": "1440 min"}, "[8]": {"conditions": "for Stability in water: 2 days at 50°C", "procedure": "as §2"}, "[9]": {"conditions": "25 RH/ 60 °C (first such line, r3), 1 week"}, "[10]": {"conditions": "25 RH/ 60 °C (first such line, r3), 2 weeks"}, "[11]": {"conditions": "25 RH/ 60 °C (first such line, r3), 4 weeks"}, "[12]": {"conditions": "25 RH/ 60 °C (first such line, r3), Initial"}, "[13]": {"conditions": "25 RH/ 60 °C (second such line, r5), 1 week"}, "[14]": {"conditions": "25 RH/ 60 °C (second such line, r5), 2 weeks"}, "[15]": {"conditions": "25 RH/ 60 °C (second such line, r5), 4 weeks"}, "[16]": {"conditions": "25 RH/ 60 °C (third such line, r6), 1 week"}, "[17]": {"conditions": "25 RH/ 60 °C (third such line, r6), 2 weeks"}, "[18]": {"conditions": "25 RH/ 60 °C (third such line, r6), 4 weeks"}}, "note": "Counter-ions that a name gives are not always drawn. Like-named read-outs stand apart in the source and are kept apart here."}
{"smiles": "N[C@@H]1c2cccnc2[C@H](OC(=O)N2CCC(n3c(=O)[nH]c4ncccc43)CC2)CC[C@H]1c1cccc(F)c1F", "note": "[Example 1, (5S,6S,9R)-5-Amino-6-(2,3-difluorophenyl)-6,7,8,9-tetrahydro-5H-cyclohepta[b]pyridin-9-yl 4-(2-oxo-2,3-dihydro-1H-imidazo[4,5-b]pyridin-1-yl) piperidine-1-carboxylate, Hemisulfate Salt]", "values": [{"measurement": "BA Mean", "setting": "[1]", "result": 34.73, "unit": "%"}, {"measurement": "moisture sorption weight gain", "setting": "[2]; between 5% and 95% relative humidity", "result": 2.8, "unit": "weight %"}, {"measurement": "moisture sorption weight gain", "setting": "[2]; between 25% and 75% relative humidity", "result": 0.8, "unit": "weight %"}, {"measurement": "Chemical degradation in aqueous slurry", "setting": "[3]", "result": "no significant chemical degradation"}, {"measurement": "PXRD pattern after aqueous slurry", "setting": "[3]", "result": "no change in the PXRD pattern"}, {"measurement": "% pot.", "setting": "[4]; [9]", "result": 94.4, "unit": "%"}, {"measurement": "% total imp.", "setting": "[4]; [9]", "result": 0.27, "unit": "%"}, {"measurement": "% pot.", "setting": "[4]; [10]", "result": 96.8, "unit": "%"}, {"measurement": "% total imp.", "setting": "[4]; [10]", "result": 0.27, "unit": "%"}, {"measurement": "% pot.", "setting": "[4]; [11]", "result": 96.9, "unit": "%"}, {"measurement": "% total imp.", "setting": "[4]; [11]", "result": 0.27, "unit": "%"}, {"measurement": "% pot.", "setting": "[4]; [12]", "result": 98.5, "unit": "%"}, {"measurement": "% total imp.", "setting": "[4]; [12]", "result": 0.27, "unit": "%"}, {"measurement": "% pot.", "setting": "[4]; [13]", "result": 95.1, "unit": "%"}, {"measurement": "% total imp.", "setting": "[4]; [13]", "result": 0.27, "unit": "%"}, {"measurement": "% pot.", "setting": "[4]; [14]", "result": 98.5, "unit": "%"}, {"measurement": "% total imp.", "setting": "[4]; [14]", "result": 0.27, "unit": "%"}, {"measurement": "% pot.", "setting": "[4]; [15]", "result": 97.0, "unit": "%"}, {"measurement": "% total imp.", "setting": "[4]; [15]", "result": 0.27, "unit": "%"}, {"measurement": "% pot.", "setting": "[4]; [16]", "result": 101.6, "unit": "%"}, {"measurement": "% total imp.", "setting": "[4]; [16]", "result": 0.28, "unit": "%"}, {"measurement": "% pot.", "setting": "[4]; [17]", "result": 102.6, "unit": "%"}, {"measurement": "% total imp.", "setting": "[4]; [17]", "result": 0.27, "unit": "%"}, {"measurement": "% pot.", "setting": "[4]; [18]", "result": 110.0, "unit": "%"}, {"measurement": "% total imp.", "setting": "[4]; [18]", "result": 0.27, "unit": "%"}, {"measurement": "% pot.", "setting": "[4]; HIL/UV, 1 week", "result": 100.7, "unit": "%"}, {"measurement": "% total imp.", "setting": "[4]; HIL/UV, 1 week", "result": 0.27, "unit": "%"}, {"measurement": "% pot.", "setting": "[4]; HIL/UV, 2 weeks", "result": 96.9, "unit": "%"}, {"measurement": "% total imp.", "setting": "[4]; HIL/UV, 2 weeks", "result": 0.27, "unit": "%"}, {"measurement": "% pot.", "setting": "[4]; Refrigerated, 1 week", "result": 98.0, "unit": "%"}, {"measurement": "% total imp.", "setting": "[4]; Refrigerated, 1 week", "result": 0.29, "unit": "%"}, {"measurement": "% pot.", "setting": "[4]; Refrigerated, 2 weeks", "result": 96.5, "unit": "%"}, {"measurement": "% total imp.", "setting": "[4]; Refrigerated, 2 weeks", "result": 0.27, "unit": "%"}, {"measurement": "% pot.", "setting": "[4]; Refrigerated, 4 weeks", "result": 105.7, "unit": "%"}, {"measurement": "% total imp.", "setting": "[4]; Refrigerated, 4 weeks", "result": 0.27, "unit": "%"}, {"measurement": "% pot.", "setting": "[4]; Refrigerated, Initial", "result": 98.5, "unit": "%"}, {"measurement": "% total imp.", "setting": "[4]; Refrigerated, Initial", "result": 0.27, "unit": "%"}, {"measurement": "Solid state stability", "setting": "[4]; various temperature and relative humidity conditions, up to four weeks of storage", "result": "stable"}, {"measurement": "Relative stability (water activity)", "setting": "[5]; versus Form P22C", "result": "more stable at > 23% relative humidity"}, {"measurement": "Relative stability (water activity)", "setting": "[5]; versus Form P33", "result": "more stable at > 23% relative humidity"}]}
{"smiles": "N#Cc1ccc([C@H]2CCc3cncn32)c(F)c1", "note": "[nitrate salt, 4-(R)-(6,7-dihydro-5H-pyrrolo[1,2-c]imidazol-5-yl)-3-fluoro-benzonitrile]", "values": [{"measurement": "water uptake at 5 % RH", "setting": "[6]", "result": 0, "unit": "%"}, {"measurement": "Moisture gain", "setting": "[6]; r.h. 0%", "result": 0.0, "unit": "%"}, {"measurement": "Moisture gain", "setting": "[6]; r.h. 5%", "result": 0.0, "unit": "%"}, {"measurement": "Moisture gain", "setting": "[6]; r.h. 25%", "result": 0.1, "unit": "%"}, {"measurement": "Moisture gain", "setting": "[6]; r.h. 50%", "result": 0.2, "unit": "%"}, {"measurement": "Moisture gain", "setting": "[6]; r.h. 75%", "result": 0.2, "unit": "%"}, {"measurement": "Moisture gain", "setting": "[6]; r.h. 85%", "result": 0.2, "unit": "%"}, {"measurement": "Moisture gain", "setting": "[6]; r.h. 95%", "result": 0.2, "unit": "%"}, {"measurement": "solubility", "setting": "[7]; pH 1, 25°C", "result": "> 50", "unit": "mg/mL"}, {"measurement": "Stability in water", "setting": "[8]", "result": "stable"}, {"measurement": "Solubility in water at the 0.1% target concentration", "setting": "[8]; water", "result": "soluble"}]}
{"smiles": "N#Cc1ccc([C@H]2CCc3cncn32)c(F)c1", "note": "[phosphate salt, 4-(R)-(6,7-dihydro-5H-pyrrolo[1,2-c]imidazol-5-yl)-3-fluoro-benzonitrile]", "values": [{"measurement": "water uptake at 5 % RH", "setting": "[6]", "result": 0, "unit": "%"}, {"measurement": "Moisture gain", "setting": "[6]; r.h. 0%", "result": 0.0, "unit": "%"}, {"measurement": "Moisture gain", "setting": "[6]; r.h. 5%", "result": 0.0, "unit": "%"}, {"measurement": "Moisture gain", "setting": "[6]; r.h. 25%", "result": 0.1, "unit": "%"}, {"measurement": "Moisture gain", "setting": "[6]; r.h. 50%", "result": 0.1, "unit": "%"}, {"measurement": "Moisture gain", "setting": "[6]; r.h. 75%", "result": 0.2, "unit": "%"}, {"measurement": "Moisture gain", "setting": "[6]; r.h. 85%", "result": 0.3, "unit": "%"}, {"measurement": "Moisture gain", "setting": "[6]; r.h. 95%", "result": 0.8, "unit": "%"}, {"measurement": "solubility", "setting": "[7]; pH 6.8, 25°C", "result": "> 50", "unit": "mg/mL"}, {"measurement": "Stability in water", "setting": "[8]", "result": "stable"}]}
